Results on 49 compounds are retold here after publication PMC11855827, “High-Throughput Screening of Five Compound Libraries for Anthelmintic Activity and Toxicity Leads to the Discovery of Two Flavonoid Compounds” (International Journal of Molecular Sciences, 2025).

This experiment relates to C. elegans. Briefly: microbe, parasite or virus in culture. The conditions noted are these: Caenorhabditis elegans.
The mark [1] stands for this setting: 0 h, read-out: Percentage of motility inhibition 0 h, Table S2, C. elegans SS assay, 110 μM, 0 h, averages of 4 data points.
[2] abbreviates: 24 h, read-out: Percentage of motility inhibition 24 h, Table S2, C. elegans SS assay, 110 μM, 24 h, averages of 4 data points.
[3] abbreviates: 0 h, read-out: Percentage of motility inhibition 0 h.
The mark [4] stands for this setting: 24 h, read-out: Percentage of motility inhibition 24 h.

Where two headings read alike, the source gives them in different places.

The term inhibition denotes the share of the control response that was lost under treatment. As for `CC(C)(O/N=C(\C(=O)N[C@@H]1C(=O)N2C(C(=O)[O-])=C(C[n+]3ccccc3)CS[C@H]12)c1csc(N)n1)C(=O)O` [Ceftazidime], the inhibition at 110 µM under setting [1] was found to be 37% and the inhibition at 110 µM under setting [2] is 28%.
As for `CC1=C(O)C(=O)C=C2C1=CC=C1[C@@]2(C)CC[C@@]2(C)[C@@H]3C[C@](C)(C(=O)O)CC[C@]3(C)CC[C@]12C` [Celastrol], the inhibition at 110 µM under setting [1] worked out at 0% and the inhibition at 110 µM under setting [2] is 13%.
As to `CC1=C(C(=O)O)N2C(=O)[C@@H](NC(=O)[C@H](N)c3ccccc3)[C@H]2SC1` [Cephalexin], the inhibition at 110 µM under setting [1] was 21% and the inhibition at 110 µM under setting [2] is 13%.
For the compound `C/C=C(\C)C(=O)N[C@@H](c1ccccc1)[C@@H](O)C(=O)O[C@H]1C[C@@]2(O)[C@@H](OC(=O)c3ccccc3)[C@@H]3[C@]4(OC(C)=O)CO[C@@H]4C[C@H](O)[C@@]3(C)C(=O)[C@H](OC(C)=O)C(=C1C)C2(C)C` [Cephalomannine], the inhibition at 110 µM turned out to be 31% under setting [1] and 34% under setting [2].
The like results for `COC1=C[C@]23CCCN2CCc2cc4c(cc2[C@@H]3[C@@H]1O)OCO4` [Cephalotaxine] were, in that order, 0% and 0%.
Take `CN1Cc2c(ccc3c2OCO3)[C@@H]2[C@H]1c1cc3c(cc1C[C@@H]2O)OCO3` [Chelidonine]: the inhibition at 110 µM reads like this: under setting [1], 0%; under setting [2], 0%.
With `C[C@H](CCC(=O)O)[C@H]1CC[C@H]2[C@@H]3[C@H](O)C[C@@H]4C[C@H](O)CC[C@]4(C)[C@H]3CC[C@]12C` [Chenodeoxycholic Acid], the inhibition at 110 µM under setting [1] was 0% and the inhibition at 110 µM under setting [2] turned out to be 5%.
Take `CC1(C)CC[C@]2(C(=O)O[C@@H]3O[C@H](CO)[C@@H](O)[C@H](O)[C@H]3O)CC[C@]3(C)C(=CC[C@@H]4[C@@]5(C)CC[C@H](O[C@@H]6O[C@H](C(=O)O)[C@@H](O)[C@H](O)[C@H]6O)C(C)(C)[C@@H]5CC[C@]43C)[C@@H]2C1` [Chikusetsusaponin Iva]: the inhibition at 110 µM by setting is: under setting [1], 5%; under setting [2], 14%.
Take `O=C(N[C@H](CO)[C@H](O)c1ccc([N+](=O)[O-])cc1)C(Cl)Cl` [Chloramphenicol]: the inhibition at 110 µM by setting is: under setting [1], 6%; under setting [2], 2%.
The like results for `[H]/N=C(\N/C(=N/[H])NCCCCCCNC(=N)NC(=N)Nc1ccc(Cl)cc1)Nc1ccc(Cl)cc1` [Chlorhexidine] were, in that order, 38% and 63%.
On to `Oc1c(Cl)cc(Cl)c2cccnc12` [Chloroxine], for which the inhibition at 110 µM is 43% under setting [1] and 34% under setting [2].
The corresponding values for `Cc1ccc2c(Cl)cc(Cl)c(O)c2n1` [Chlorquinaldol] are 19% and 38%.
Take `CC(C)CCC[C@@H](C)[C@H]1CC[C@H]2[C@@H]3CC=C4C[C@@H](O)CC[C@]4(C)[C@H]3CC[C@]12C` [Cholesterol]: the inhibition at 110 µM is 24% under setting [1] and 17% under setting [2].
For the compound `C[C@H](CCC(=O)O)[C@H]1CC[C@H]2[C@@H]3[C@H](O)C[C@@H]4C[C@H](O)CC[C@]4(C)[C@H]3C[C@H](O)[C@]12C` [Cholic acid], the inhibition at 110 µM is, setting by setting: under setting [3], 0%; under setting [4], 8%.
Take `O=c1cc(-c2ccccc2)oc2cc(O)cc(O)c12` [Chrysin]: the inhibition at 110 µM reads like this: under setting [1], 15%; under setting [2], 0%.
Take `COc1cc(-c2cc(=O)c3c(O)cc(O)cc3o2)ccc1O` [Chrysoeriol]: the inhibition at 110 µM under setting [1] was found to be 18% and the inhibition at 110 µM under setting [2] stood at 1%.
The corresponding values for `Cc1cc(C2CCCCC2)n(O)c(=O)c1` [Ciclopirox] are 42% and 41%.
The corresponding values for `Nc1ccn(C[C@@H](CO)OCP(=O)(O)O)c(=O)n1` [Cidofovir] are 15% and 3%.
In the case of `C=C[C@H]1CN2CC[C@H]1C[C@H]2[C@H](O)c1ccnc2ccccc12` [Cinchonidine], the inhibition at 110 µM reads like this: under setting [1], 0%; under setting [2], 0%.
`C=C[C@H]1C[N@@]2CC[C@H]1C[C@@H]2[C@@H](O)c1ccnc2ccccc12` [Cinchonine]: the inhibition at 110 µM came out at 6% under setting [1] and 0% under setting [2].
As to `O=C(O)c1cn(C2CC2)c2cc(N3CCNCC3)c(F)cc2c1=O` [Ciprofloxacin], the inhibition at 110 µM by setting is: under setting [1], 33%; under setting [2], 2%.
Take `C[N+](C)(C)CCOP(=O)(O)OP(=O)([O-])OC[C@H]1O[C@@H](n2ccc(N)nc2=O)[C@H](O)[C@@H]1O` [Citicoline]: the inhibition at 110 µM by setting is: under setting [1], 0%; under setting [2], 0%.
In the case of `O=C(O)CC(O)(CC(=O)O)C(=O)O` [Citric acid], the inhibition at 110 µM reads like this: under setting [1], 0%; under setting [2], 18%.
The corresponding values for `CC(C)=CCCC(C)CCO` (centres unmarked) [Citronellol] are 15% and 28%.
The corresponding values for `CC[C@H]1OC(=O)[C@H](C)[C@@H](O[C@H]2C[C@@](C)(OC)[C@@H](O)[C@H](C)O2)[C@H](C)[C@@H](O[C@@H]2O[C@H](C)C[C@H](N(C)C)[C@H]2O)[C@](C)(OC)C[C@@H](C)C(=O)[C@H](C)[C@@H](O)[C@]1(C)O` [Clarithromycin] are 12% and 10%.
`Cc1cn([C@H]2O[C@@H](CO)[C@H](O)[C@H]2F)c(=O)[nH]c1=O` [Clevudine]: the inhibition at 110 µM is, setting by setting: under setting [1], 2%; under setting [2], 0%.
The like results for `CC(C)(C)C(=O)C(Oc1ccc(Cl)cc1)n1ccnc1` (centres unmarked) [Climbazole] were, in that order, 53% and 2%.
With `Oc1c(I)cc(Cl)c2cccnc12` [Clioquinol], the inhibition at 110 µM by setting is: under setting [1], 23%; under setting [2], 0%.
Regarding `CC(C)/N=c1\cc2n(-c3ccc(Cl)cc3)c3ccccc3nc-2cc1Nc1ccc(Cl)cc1` [Clofazimine], the inhibition at 110 µM is 6% under setting [1] and 7% under setting [2].
With `CC(C)(C)CC(C)(C)c1ccc(O)c(Cc2ccc(Cl)cc2Cl)c1` [Clofoctol], the inhibition at 110 µM came out at 37% under setting [1] and 44% under setting [2].
The like results for `Cc1nc(C)c(Cl)c(O)c1Cl` [Clopidol] were, in that order, 7% and 11%.
The corresponding values for `Nc1cc(C(Cl)=C(Cl)Cl)c(S(N)(=O)=O)cc1S(N)(=O)=O` [Clorsulon] are 12% and 5%.
Turning to `Cc1cc(C(C#N)c2ccc(Cl)cc2)c(Cl)cc1NC(=O)c1cc(I)cc(I)c1O` (centres unmarked) [Closantel], the inhibition at 110 µM under setting [1] stood at 4% and the inhibition at 110 µM under setting [2] turned out to be 48%.
For `Clc1ccccc1C(c1ccccc1)(c1ccccc1)n1ccnc1` [Clotrimazole], the inhibition at 110 µM by setting is: under setting [1], 6%; under setting [2], 0%.
The like results for `Oc1ccc(Cl)c2cccnc12` [Cloxiquine] were, in that order, 40% and 19%.
In the case of `COc1cc2c(c(OC)c1OC)-c1ccc(OC)c(=O)cc1[C@@H](NC(C)=O)CC2` [Colchicine], the inhibition at 110 µM under setting [3] came out at 0% and the inhibition at 110 µM under setting [4] came to 6%.
As to `COc1cc2c(cc1O)-c1cc3ccc(OC)c(OC)c3c[n+]1CC2` [Columbamine], the inhibition at 110 µM is, setting by setting: under setting [1], 1%; under setting [2], 0%.
Regarding `COc1cc(O)c2c(=O)c(O[C@@H]3O[C@H](CO)[C@@H](O)[C@H](O)[C@H]3O)c(-c3ccc(O[C@@H]4O[C@H](CO)[C@@H](O)[C@H](O)[C@H]4O)cc3)oc2c1` [Complanatuside], the inhibition at 110 µM by setting is: under setting [1], 0%; under setting [2], 22%.
As for `C[C@@H]1O[C@@H](O[C@H]2CC[C@]3(C=O)[C@H]4CC[C@]5(C)[C@@H](C6=CC(=O)OC6)CC[C@]5(O)[C@@H]4CC[C@]3(O)C2)[C@H](O)[C@H](O)[C@H]1O` [Convallatoxin], the inhibition at 110 µM came out at 2% under setting [1] and 3% under setting [2].
The like results for `CC[C@H]1C[C@@H]2CN3CCc4c([nH]c5ccccc45)[C@](C(=O)OC)(C2)[C@H]13` [Coronaridine] were, in that order, 0% and 5%.
Turning to `C[C@H]1[C@H](C)CC[C@]2(C(=O)O)CC[C@]3(C)C(=CC[C@@H]4[C@@]5(C)C[C@@H](O)[C@H](O)C(C)(C)[C@@H]5CC[C@]43C)[C@H]12` [Corosolic acid], the inhibition at 110 µM is, setting by setting: under setting [1], 23%; under setting [2], 34%.
Turning to `C=C[C@H]1CN2CC[C@]3(C(=O)Nc4ccccc43)[C@@H]2C[C@@H]1/C(=C\OC)C(=O)OC` [Corynoxeine], the inhibition at 110 µM worked out at 0% under setting [1] and 2% under setting [2].
Turning to `CC[C@@H]1CN2CC[C@]3(C(=O)Nc4ccccc43)[C@@H]2C[C@@H]1/C(=C\OC)C(=O)OC` [Corynoxine B], the inhibition at 110 µM turned out to be 5% under setting [1] and 20% under setting [2].
As to `CC[C@@H]1CN2CC[C@@]3(C(=O)Nc4ccccc43)[C@@H]2C[C@@H]1/C(=C\OC)C(=O)OC` [Corynoxine], the inhibition at 110 µM was 3% under setting [1] and 3% under setting [2].
Consider `C=C1C(=O)O[C@@H]2/C=C(\C)CC/C=C(\C)CC[C@@H]12` [Costunolide], for which the inhibition at 110 µM was 0% under setting [1] and 21% under setting [2].
For `CN1C(=O)CC[C@H]1c1cccnc1` [Cotinine], the inhibition at 110 µM runs as follows: under setting [1], 45%; under setting [2], 16%.
The corresponding values for `O=c1ccc2ccccc2o1` [Coumarin] are 12% and 8%.
The corresponding values for `CCN1C[C@]2(COC)CC[C@H](OC)[C@]34C1[C@H]([C@H](OC)[C@H]23)[C@@]1(OC(C)=O)C[C@H](OC)[C@@]2(O)C[C@@H]4[C@@H]1[C@H]2OC(=O)c1ccc(OC)cc1` [Crassicauline A] are 0% and 0%.
The corresponding values for `CN(CC(=O)O)C(=N)N` [Creatine] are 4% and 9%.
